Converted amounts (≈) assume the structure as drawn.
Tests used:
[1] = Aqueous solubility of compound; format: physicochemical; details: buffer
[2] = Permeability by PAMPA; format: ADME; details: read-out: permeability
[3] = Cmax in NZBWF1/J mouse at 25 mg/kg, po; format: ADME, organism-based; set-up: dose 25 mg/kg, route oral; details: in vivo
[4] = AUC in NZBWF1/J mouse at 25 mg/kg, po; format: ADME, organism-based; set-up: dose 25 mg/kg, route oral; details: plasma
Mus musculus = assay: Cavg in NZBWF1/J mouse at 25 mg/kg, po; format: ADME, organism-based; set-up: dose 25 mg/kg, route oral; details: in vivo

solubility [1]: 61 µg/mL (≈ 132 µM) | Papp [2]: 0.39 ×10⁻⁶ cm/s | Cmax [3]: 2200 nM | AUC [4]: 17.8 µM·h | Drug uptake (Mus musculus): 740 nM
SMILES: Cc1c(Nc2c(C#N)cncc2/C=C/c2cccc(CN3CCN(C)CC3)n2)ccc2[nH]ccc12
